The source of these data is article PMC8490825 (Frontiers in Molecular Biosciences, 2021).

For assay [1], the target named is hNaV1.5 (Homo sapiens, UniProt Q14524). The experiment in a line: cell-based. Type of assay: cell-based. Particulars: N = 3-4; read-out: IC50 ± SEM, NaV1.5.
In assay [2] the target is T1, hNaV1.7 (Homo sapiens, UniProt Q15858). The assay is described as follows: cell-based. It is filed as cell-based. The following applies: N = 3-4; SEM; read-out: IC50 ± SEM, NaV1.7.
For assay [3], the target named is hNaV1.4 (Homo sapiens, UniProt P35499). The assay is described as follows: cell-based. It is filed as cell-based. The following applies: N = 4; SEM; read-out: IC50 ± SEM, NaV1.4.
Assay [4] addresses hNaV1.1 (Homo sapiens, UniProt P35498). The experiment in a line: cell-based. It is filed as cell-based. Particulars: N = 4-5; SEM; read-out: IC50 ± SEM, NaV1.1.
The target of assay [5] is hNaV1.3 (Homo sapiens, UniProt Q9NY46). The experiment in a line: cell-based. The following applies: N = 3-4; SEM; read-out: IC50 ± SEM, NaV1.3.
Assay [6] addresses hNaV1.6 (Homo sapiens, UniProt Q9UQD0). The experiment in a line: cell-based. The following applies: N = 4; SEM; read-out: IC50 ± SEM, NaV1.6.
Assay [7] has as its target T1, hNaV1.7. Type of assay: cell-based. Particulars: SEM.
Assay [8] has as its target hNaV1.2 (Homo sapiens, UniProt Q99250). The experiment in a line: cell-based. Particulars: N = 3-6; SEM; read-out: IC50 ± SEM, NaV1.2.

Structures are written as SMILES. Where a SMILES comes first, the peptide text is derived from it. Bridges are numbered along the chain shown (N, C = ends). Some results are limits rather than exact numbers.

T1 sequence (Q15858 whole entry, looked up): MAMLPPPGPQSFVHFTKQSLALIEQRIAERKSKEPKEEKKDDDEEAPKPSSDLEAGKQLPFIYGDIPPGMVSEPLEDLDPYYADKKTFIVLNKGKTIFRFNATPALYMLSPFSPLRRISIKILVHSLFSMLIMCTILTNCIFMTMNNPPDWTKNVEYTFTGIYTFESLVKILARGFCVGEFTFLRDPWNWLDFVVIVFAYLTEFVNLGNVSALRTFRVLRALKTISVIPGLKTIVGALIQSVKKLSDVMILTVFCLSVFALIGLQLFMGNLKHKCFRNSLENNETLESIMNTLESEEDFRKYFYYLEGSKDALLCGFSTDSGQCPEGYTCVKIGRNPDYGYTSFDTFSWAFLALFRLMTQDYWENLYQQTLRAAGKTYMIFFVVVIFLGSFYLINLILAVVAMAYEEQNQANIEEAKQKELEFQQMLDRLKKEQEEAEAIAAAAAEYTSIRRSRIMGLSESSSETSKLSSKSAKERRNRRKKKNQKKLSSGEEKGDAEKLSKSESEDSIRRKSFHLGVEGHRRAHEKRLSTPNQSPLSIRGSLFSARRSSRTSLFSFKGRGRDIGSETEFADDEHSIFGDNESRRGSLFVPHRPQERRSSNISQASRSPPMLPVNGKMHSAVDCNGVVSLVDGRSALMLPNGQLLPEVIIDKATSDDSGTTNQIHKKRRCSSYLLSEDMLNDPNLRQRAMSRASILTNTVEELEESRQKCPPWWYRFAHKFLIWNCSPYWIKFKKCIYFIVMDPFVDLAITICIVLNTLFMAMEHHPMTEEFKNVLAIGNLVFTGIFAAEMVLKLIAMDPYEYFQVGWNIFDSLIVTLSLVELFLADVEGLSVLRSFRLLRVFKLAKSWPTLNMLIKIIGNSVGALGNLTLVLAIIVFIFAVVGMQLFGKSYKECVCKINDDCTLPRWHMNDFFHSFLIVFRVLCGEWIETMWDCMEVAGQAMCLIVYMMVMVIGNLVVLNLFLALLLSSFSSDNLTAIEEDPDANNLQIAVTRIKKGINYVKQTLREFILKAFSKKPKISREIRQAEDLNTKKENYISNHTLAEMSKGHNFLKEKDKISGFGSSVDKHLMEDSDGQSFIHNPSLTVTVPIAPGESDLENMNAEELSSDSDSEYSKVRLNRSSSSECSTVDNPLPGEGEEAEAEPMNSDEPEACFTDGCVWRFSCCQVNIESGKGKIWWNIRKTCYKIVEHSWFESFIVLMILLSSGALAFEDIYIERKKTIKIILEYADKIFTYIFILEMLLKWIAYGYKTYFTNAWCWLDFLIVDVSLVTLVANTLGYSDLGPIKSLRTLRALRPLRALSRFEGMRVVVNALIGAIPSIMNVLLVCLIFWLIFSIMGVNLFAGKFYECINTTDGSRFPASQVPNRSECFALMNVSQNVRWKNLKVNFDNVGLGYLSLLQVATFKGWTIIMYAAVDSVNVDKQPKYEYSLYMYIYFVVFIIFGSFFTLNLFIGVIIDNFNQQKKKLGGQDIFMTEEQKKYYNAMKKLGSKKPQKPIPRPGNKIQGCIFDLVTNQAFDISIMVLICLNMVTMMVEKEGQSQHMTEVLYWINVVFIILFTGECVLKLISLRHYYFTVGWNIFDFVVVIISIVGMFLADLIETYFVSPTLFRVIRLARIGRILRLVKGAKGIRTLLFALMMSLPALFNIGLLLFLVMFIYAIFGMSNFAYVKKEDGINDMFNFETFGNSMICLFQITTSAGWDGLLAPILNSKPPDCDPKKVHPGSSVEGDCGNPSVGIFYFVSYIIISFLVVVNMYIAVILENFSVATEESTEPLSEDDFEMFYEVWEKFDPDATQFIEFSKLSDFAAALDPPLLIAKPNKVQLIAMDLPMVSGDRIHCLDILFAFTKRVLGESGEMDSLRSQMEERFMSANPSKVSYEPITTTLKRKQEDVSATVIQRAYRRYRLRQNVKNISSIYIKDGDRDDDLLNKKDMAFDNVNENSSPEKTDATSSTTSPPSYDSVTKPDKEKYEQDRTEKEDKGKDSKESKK
Chain of hNaV1.5 (Q14524 whole entry, looked up): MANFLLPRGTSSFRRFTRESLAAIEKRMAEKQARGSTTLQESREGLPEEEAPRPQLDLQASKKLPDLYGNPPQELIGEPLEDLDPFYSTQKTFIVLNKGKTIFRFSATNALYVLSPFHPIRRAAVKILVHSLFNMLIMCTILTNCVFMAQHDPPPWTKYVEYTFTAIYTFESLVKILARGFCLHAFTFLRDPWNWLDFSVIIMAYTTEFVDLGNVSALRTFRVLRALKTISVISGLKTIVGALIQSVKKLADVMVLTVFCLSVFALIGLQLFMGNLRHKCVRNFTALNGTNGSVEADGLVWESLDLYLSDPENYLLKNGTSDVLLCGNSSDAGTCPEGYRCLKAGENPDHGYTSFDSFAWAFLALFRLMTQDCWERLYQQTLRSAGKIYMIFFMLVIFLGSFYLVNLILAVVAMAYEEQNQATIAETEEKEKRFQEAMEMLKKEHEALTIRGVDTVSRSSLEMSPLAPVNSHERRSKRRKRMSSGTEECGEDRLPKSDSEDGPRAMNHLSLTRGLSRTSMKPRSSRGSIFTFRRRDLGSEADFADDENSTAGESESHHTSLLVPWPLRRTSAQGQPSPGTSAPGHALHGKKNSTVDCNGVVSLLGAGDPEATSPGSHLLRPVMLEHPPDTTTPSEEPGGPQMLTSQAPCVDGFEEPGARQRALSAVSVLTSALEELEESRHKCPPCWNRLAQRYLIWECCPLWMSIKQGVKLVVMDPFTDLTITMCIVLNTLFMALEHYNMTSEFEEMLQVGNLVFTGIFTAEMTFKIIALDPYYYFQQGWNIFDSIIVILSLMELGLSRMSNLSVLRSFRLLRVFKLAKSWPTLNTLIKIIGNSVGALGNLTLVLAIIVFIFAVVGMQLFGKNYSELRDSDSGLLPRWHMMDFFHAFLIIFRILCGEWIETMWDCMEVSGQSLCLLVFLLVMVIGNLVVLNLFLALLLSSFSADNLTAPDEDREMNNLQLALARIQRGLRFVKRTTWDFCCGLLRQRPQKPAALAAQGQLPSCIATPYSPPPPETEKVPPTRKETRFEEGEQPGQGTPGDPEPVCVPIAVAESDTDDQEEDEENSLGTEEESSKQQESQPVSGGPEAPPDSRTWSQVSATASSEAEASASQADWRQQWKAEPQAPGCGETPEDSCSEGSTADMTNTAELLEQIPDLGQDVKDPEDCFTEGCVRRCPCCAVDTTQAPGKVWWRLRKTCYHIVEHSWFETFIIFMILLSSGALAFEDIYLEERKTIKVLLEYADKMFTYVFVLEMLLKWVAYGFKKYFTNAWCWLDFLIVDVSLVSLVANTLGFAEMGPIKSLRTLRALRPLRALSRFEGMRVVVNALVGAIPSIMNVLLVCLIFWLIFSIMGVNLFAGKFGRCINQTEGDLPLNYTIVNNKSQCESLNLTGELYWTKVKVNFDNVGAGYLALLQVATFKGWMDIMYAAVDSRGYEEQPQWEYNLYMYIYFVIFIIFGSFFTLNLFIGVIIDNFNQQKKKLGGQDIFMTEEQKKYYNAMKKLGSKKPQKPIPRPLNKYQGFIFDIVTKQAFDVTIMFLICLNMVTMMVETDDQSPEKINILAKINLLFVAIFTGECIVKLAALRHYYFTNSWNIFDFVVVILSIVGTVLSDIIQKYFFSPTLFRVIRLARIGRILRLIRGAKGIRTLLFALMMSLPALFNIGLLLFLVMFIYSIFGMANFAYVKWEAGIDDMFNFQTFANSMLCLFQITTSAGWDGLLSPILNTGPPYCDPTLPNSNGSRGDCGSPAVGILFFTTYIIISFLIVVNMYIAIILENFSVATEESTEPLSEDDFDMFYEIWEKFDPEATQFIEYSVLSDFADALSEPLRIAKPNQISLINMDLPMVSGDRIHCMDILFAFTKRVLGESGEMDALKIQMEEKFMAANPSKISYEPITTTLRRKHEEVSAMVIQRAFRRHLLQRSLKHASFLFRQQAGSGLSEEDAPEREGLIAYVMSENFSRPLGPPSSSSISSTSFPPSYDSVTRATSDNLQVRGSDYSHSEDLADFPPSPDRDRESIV

A word on the IC50: it is the concentration at which inhibition is half-maximal. As for `CC[C@H](C)[C@@H]1NC(=O)CNC(=O)[C@H](CC(C)C)NC(=O)[C@@H](NC(=O)CNC(=O)CN)CSSC[C@@H]2NC(=O)[C@@H]3CSSC[C@@H](C(=O)N[C@@H](CCCCN)C(=O)N[C@@H](Cc4c[nH]c5ccccc45)C(=O)N[C@@H](CCCCN)C(=O)N[C@@H](CC(C)C)C(=O)N[C@@H](Cc4c[nH]c5ccccc45)C(=O)O)NC(=O)[C@H](Cc4c[nH]c5ccccc45)NC(=O)[C@H](CCCNC(=N)N)NC(=O)[C@H](Cc4c[nH]cn4)NC(=O)[C@H](CCCCN)NC(=O)[C@H](CCCCN)NC(=O)[C@H](CO)NC(=O)[C@H](CSSC[C@H](NC(=O)[C@H](CO)NC(=O)[C@H](CO)NC(=O)[C@H](Cc4ccccc4)NC1=O)C(=O)N[C@@H](CC(=O)O)C(=O)N1CCC[C@H]1C(=O)N[C@@H](CCC(=O)O)C(=O)N[C@@H](CC(N)=O)C(=O)N[C@@H](CC(=O)O)C(=O)N[C@@H](CCCCN)C(=O)N3)NC(=O)[C@H](C(C)C)NC(=O)[C@H](CCCNC(=N)N)NC(=O)[C@H](CC(N)=O)NC(=O)[C@H](Cc1ccc(O)cc1)NC2=O` [Tap1a-OPT1] (H-GGCLGIFSSCDPENDKCCYNRVCSKKHRWCKWKLW-OH; disulfide 3-18, 10-23, 17-30), the IC50 in assay [1] was over 1000 nM; in assay [2], 3 ± 0.7 nM; in assay [3], 100 ± 19 nM; in assay [4], 17 ± 3 nM; in assay [5], 6 ± 0.5 nM; in assay [6] it was 4.6 ± 2.3 nM. For the same compound, in assay [8], the IC50 worked out at 5 ± 1 nM. Besides, the “Kon observed, hNaV1.7” value in assay [7] was 8.60 ± 1.7 × 10^−3 s^−1.
